Measured values from ChEMBL document CHEMBL2434896, “Carbonic anhydrase inhibitors. Synthesis of heterocyclic 4-substituted pyridine-3-sulfonamide derivatives and their inhibition of the human cytosolic isozymes I and II and transmembrane tumor-associated isozymes IX and XII” (Eur J Med Chem, 2013).
pKi: −log10 of the molar value. Calls of active or inactive are those of the source. No cut-off for these calls is given here.

Assays:
[1] = tested on: LOX IMVI; assay: Growth inhibition of human LOXIMVI cells at 10 uM after 48 hrs by sulforhodamine B assay; assay type: functional
[2] = tested on: U-251; assay: Growth inhibition of human U251 cells at 10 uM after 48 hrs by sulforhodamine B assay; assay type: functional; details: U-251, 48 h, read-out: GI
[3] = tested on: SNB-75; assay: Growth inhibition of human SNB75 cells at 10 uM after 48 hrs by sulforhodamine B assay; assay type: functional; details: SNB-75, 48 h, read-out: GI
[4] = tested on: SNB-19; assay: Growth inhibition of human SNB19 cells at 10 uM after 48 hrs by sulforhodamine B assay; assay type: functional
[5] = tested on: SF-539; assay: Growth inhibition of human SF539 cells at 10 uM after 48 hrs by sulforhodamine B assay; assay type: functional
[6] = tested on: SF-295; assay: Growth inhibition of human SF295 cells at 10 uM after 48 hrs by sulforhodamine B assay; assay type: functional
[7] = tested on: SF-268; assay: Growth inhibition of human SF268 cells at 10 uM after 48 hrs by sulforhodamine B assay; assay type: functional
[8] = tested on: KM12; assay: Growth inhibition of human KM12 cells at 10 uM after 48 hrs by sulforhodamine B assay; assay type: functional
[9] = tested on: SW-620; assay: Growth inhibition of human SW620 cells at 10 uM after 48 hrs by sulforhodamine B assay; assay type: functional
[10] = tested on: HT-29; assay: Growth inhibition of human HT-29 cells at 10 uM after 48 hrs by sulforhodamine B assay; assay type: functional
[11] = tested on: HCT-15; assay: Growth inhibition of human HCT15 cells at 10 uM after 48 hrs by sulforhodamine B assay; assay type: functional
[12] = tested on: HCT-116; assay: Growth inhibition of human HCT116 cells at 10 uM after 48 hrs by sulforhodamine B assay; assay type: functional
[13] = Growth inhibition of human HCC2998 cells at 10 uM after 48 hrs by sulforhodamine B assay; assay type: functional; details: HCC 2998, 48 h, read-out: GI
[14] = tested on: COLO 205; assay: Growth inhibition of human COLO205 cells at 10 uM after 48 hrs by sulforhodamine B assay; assay type: functional
[15] = tested on: NCI-H522; assay: Growth inhibition of human NCI-H522 cells at 10 uM after 48 hrs by sulforhodamine B assay; assay type: functional; details: NCI-H522, 48 h, read-out: GI
[16] = tested on: NCI-H460; assay: Growth inhibition of human NCI-H460 cells at 10 uM after 48 hrs by sulforhodamine B assay; assay type: functional
[17] = tested on: NCI-H23; assay: Growth inhibition of human NCI-H23 cells at 10 uM after 48 hrs by sulforhodamine B assay; assay type: functional
[18] = tested on: NCI-H226; assay: Growth inhibition of human NCI-H226 cells at 10 uM after 48 hrs by sulforhodamine B assay; assay type: functional
[19] = tested on: HOP-92; assay: Growth inhibition of human HOP92 cells at 10 uM after 48 hrs by sulforhodamine B assay; assay type: functional; details: HOP-92, 48 h, read-out: GI
[20] = tested on: HOP-62; assay: Growth inhibition of human HOP62 cells at 10 uM after 48 hrs by sulforhodamine B assay; assay type: functional
[21] = tested on: EKVX; assay: Growth inhibition of human EKVX cells at 10 uM after 48 hrs by sulforhodamine B assay; assay type: functional
[22] = tested on: A549; assay: Growth inhibition of human A549/ATCC cells at 10 uM after 48 hrs by sulforhodamine B assay; assay type: functional
[23] = tested on: SR; assay: Growth inhibition of human SR cells at 10 uM after 48 hrs by sulforhodamine B assay; assay type: functional; details: read-out: GI
[24] = tested on: RPMI-8226; assay: Growth inhibition of human RPMI8226 cells at 10 uM after 48 hrs by sulforhodamine B assay; assay type: functional
[25] = tested on: MOLT-4; assay: Growth inhibition of human MOLT4 cells at 10 uM after 48 hrs by sulforhodamine B assay; assay type: functional; details: MOLT-4, 48 h, read-out: GI
[26] = tested on: HL-60(TB); assay: Growth inhibition of human HL-60(TB) cells at 10 uM after 48 hrs by sulforhodamine B assay; assay type: functional; details: HL-60, 48 h, read-out: GI
[27] = tested on: CCRF-CEM; assay: Growth inhibition of human CCRF-CEM cells at 10 uM after 48 hrs by sulforhodamine B assay; assay type: functional; details: read-out: GI
[28] = target: Carbonic anhydrase 9 (Homo sapiens, UniProt Q16790); assay: Inhibition of human carbonic anhydrase 9 after 15 mins by stopped flow CO2 hydration assay
[29] = tested on: MDA-MB-468; assay: Growth inhibition of human MDA-MB-468 cells at 10 uM after 48 hrs by sulforhodamine B assay; assay type: functional
[30] = tested on: T47D; assay: Growth inhibition of human T47D cells at 10 uM after 48 hrs by sulforhodamine B assay; assay type: functional
[31] = tested on: BT-549; assay: Growth inhibition of human BT549 cells at 10 uM after 48 hrs by sulforhodamine B assay; assay type: functional
[32] = tested on: Hs-578T; assay: (§1) Growth inhibition of human Hs 578T cells at 10 uM after 48 hrs by sulforhodamine B assay; assay type: functional
[33] = tested on: MDA-MB-231; assay: Growth inhibition of human MDA-MB-231 cells at 10 uM after 48 hrs by sulforhodamine B assay; assay type: functional
[34] = tested on: MCF7; assay: Growth inhibition of human MCF7 cells at 10 uM after 48 hrs by sulforhodamine B assay; assay type: functional
[35] = tested on: DU-145; assay: Growth inhibition of human DU145 cells at 10 uM after 48 hrs by sulforhodamine B assay; assay type: functional
[36] = tested on: TK-10; assay: Growth inhibition of human TK10 cells at 10 uM after 48 hrs by sulforhodamine B assay; assay type: functional
[37] = tested on: SN12C; assay: Growth inhibition of human SN12C cells at 10 uM after 48 hrs by sulforhodamine B assay; assay type: functional
[38] = tested on: RXF 393; assay: Growth inhibition of human RXF393 cells at 10 uM after 48 hrs by sulforhodamine B assay; assay type: functional
[39] = tested on: CAKI-1; assay: Growth inhibition of human CAKI-1 cells at 10 uM after 48 hrs by sulforhodamine B assay; assay type: functional
[40] = tested on: ACHN; assay: Growth inhibition of human ACHN cells at 10 uM after 48 hrs by sulforhodamine B assay; assay type: functional
[41] = tested on: 786-0; assay: Growth inhibition of human 786-0 cells at 10 uM after 48 hrs by sulforhodamine B assay; assay type: functional
[42] = tested on: SK-OV-3; assay: Growth inhibition of human SKOV3 cells at 10 uM after 48 hrs by sulforhodamine B assay; assay type: functional
[43] = tested on: NCI/ADR-RES; assay: Growth inhibition of human NCI-ADR-RES cells at 10 uM after 48 hrs by sulforhodamine B assay; assay type: functional
[44] = tested on: OVCAR-8; assay: Growth inhibition of human OVCAR8 cells at 10 uM after 48 hrs by sulforhodamine B assay; assay type: functional
[45] = tested on: OVCAR-5; assay: Growth inhibition of human OVCAR5 cells at 10 uM after 48 hrs by sulforhodamine B assay; assay type: functional
[46] = tested on: OVCAR-3; assay: Growth inhibition of human OVCAR3 cells at 10 uM after 48 hrs by sulforhodamine B assay; assay type: functional
[47] = tested on: UACC-62; assay: Growth inhibition of human UACC62 cells at 10 uM after 48 hrs by sulforhodamine B assay; assay type: functional; details: UACC-62, 48 h, read-out: GI
[48] = tested on: UACC-257; assay: Growth inhibition of human UACC257 cells at 10 uM after 48 hrs by sulforhodamine B assay; assay type: functional
[49] = tested on: SK-MEL-5; assay: Growth inhibition of human SK-MEL-5 cells at 10 uM after 48 hrs by sulforhodamine B assay; assay type: functional
[50] = tested on: SK-MEL-28; assay: Growth inhibition of human SK-MEL-28 cells at 10 uM after 48 hrs by sulforhodamine B assay; assay type: functional, cell-based
[51] = tested on: SK-MEL-2; assay: Growth inhibition of human SK-MEL-2 cells at 10 uM after 48 hrs by sulforhodamine B assay; assay type: functional
[52] = tested on: MDA-MB-435; assay: Growth inhibition of human MDA-MB-435 cells at 10 uM after 48 hrs by sulforhodamine B assay; assay type: functional
[53] = tested on: M14; assay: Growth inhibition of human M14 cells at 10 uM after 48 hrs by sulforhodamine B assay; assay type: functional
[54] = as §1; assay type: functional; details: read-out: GI

## CSc1nc(N)n(-c2ccncc2S(N)(=O)=O)n1
[1]
  growth inhibition (GI): inactive
[2]
  inhibition of growth at 10 µM: 6%
[3]
  inhibition of growth at 10 µM: 7%
[4]
  growth inhibition (GI): inactive
[5]
  growth inhibition (GI): inactive
[6]
  growth inhibition (GI): inactive
[7]
  growth inhibition (GI): inactive
[8]
  growth inhibition (GI): inactive
[9]
  growth inhibition (GI): inactive
[10]
  growth inhibition (GI): inactive
[11]
  growth inhibition (GI): inactive
[12]
  growth inhibition (GI): inactive
[13]
  inhibition of growth at 10 µM: 10%
[14]
  growth inhibition (GI): inactive
[15]
  inhibition of growth at 10 µM: 1%
[16]
  growth inhibition (GI): inactive
[17]
  growth inhibition (GI): inactive
[18]
  growth inhibition (GI): inactive
[19]
  inhibition of growth at 10 µM: 20%
[20]
  growth inhibition (GI): inactive
[21]
  growth inhibition (GI): inactive
[22]
  growth inhibition (GI): inactive
[23]
  inhibition of growth at 10 µM: 10%
[24]; RPMI-8226, 48 h, read-out: GI
  inhibition of growth at 10 µM: 2%
[25]
  inhibition of growth at 10 µM: 1%
[26]
  inhibition of growth at 10 µM: 3%
[27]
  inhibition of growth at 10 µM: 8%
[28]
  pKi: 7.18
[29]
  growth inhibition (GI): inactive
[30]
  growth inhibition (GI): inactive
[31]
  growth inhibition (GI): inactive
[32]
  growth inhibition (GI): inactive
[33]; MDA-MB-231, 48 h, read-out: GI
  inhibition of growth at 10 µM: 1%
[34]
  growth inhibition (GI): inactive
[35]
  growth inhibition (GI): inactive
[36]
  growth inhibition (GI): inactive
[37]
  growth inhibition (GI): inactive
[38]
  growth inhibition (GI): inactive
[39]
  growth inhibition (GI): inactive
[40]
  growth inhibition (GI): inactive
[41]
  growth inhibition (GI): inactive
[42]
  growth inhibition (GI): inactive
[43]
  growth inhibition (GI): inactive
[44]
  growth inhibition (GI): inactive
[45]
  growth inhibition (GI): inactive
[46]
  growth inhibition (GI): inactive
[47]
  inhibition of growth at 10 µM: 4%
[48]; UACC-257, 48 h, read-out: GI
  inhibition of growth at 10 µM: 7%
[49]
  growth inhibition (GI): inactive
[50]
  growth inhibition (GI): inactive
[51]
  growth inhibition (GI): inactive
[52]
  growth inhibition (GI): inactive
[53]
  growth inhibition (GI): inactive

## Cc1nn(-c2ccncc2S(N)(=O)=O)c(C)c1C
[2]
  inhibition of growth at 10 µM: 1%
[3]
  inhibition of growth at 10 µM: 6%
[4]; SNB-19, 48 h, read-out: GI
  inhibition of growth at 10 µM: 1%
[5]
  growth inhibition (GI): inactive
[6]
  growth inhibition (GI): inactive
[7]
  growth inhibition (GI): inactive
[8]
  growth inhibition (GI): inactive
[9]; SW-620, 48 h, read-out: GI
  inhibition of growth at 10 µM: 12%
[10]
  growth inhibition (GI): inactive
[11]
  growth inhibition (GI): inactive
[12]
  growth inhibition (GI): inactive
[14]
  growth inhibition (GI): inactive
[15]
  inhibition of growth at 10 µM: 3%
[16]
  growth inhibition (GI): inactive
[18]
  growth inhibition (GI): inactive
[19]
  inhibition of growth at 10 µM: 25%
[20]
  growth inhibition (GI): inactive
[21]
  growth inhibition (GI): inactive
[22]
  growth inhibition (GI): inactive
[23]
  inhibition of growth at 10 µM: 16%
[24]
  growth inhibition (GI): inactive
[25]
  inhibition of growth at 10 µM: 5%
[26]
  inhibition of growth at 10 µM: 9%
[27]
  inhibition of growth at 10 µM: 6%
[28]
  pKi: 7.64
[29]
  growth inhibition (GI): inactive
[30]
  growth inhibition (GI): inactive
[31]; BT-549, 48 h, read-out: GI
  inhibition of growth at 10 µM: 4%
[54]
  inhibition of growth at 10 µM: 20%
[33]
  growth inhibition (GI): inactive
[34]; MCF7, 48 h, read-out: GI
  inhibition of growth at 10 µM: 4%
[35]
  growth inhibition (GI): inactive
[36]
  growth inhibition (GI): inactive
[37]; read-out: GI
  inhibition of growth at 10 µM: 9%
[38]
  growth inhibition (GI): inactive
[39]
  growth inhibition (GI): inactive
[40]
  growth inhibition (GI): inactive
[41]
  growth inhibition (GI): inactive
[42]
  growth inhibition (GI): inactive
[44]
  growth inhibition (GI): inactive
[45]
  growth inhibition (GI): inactive
[46]
  growth inhibition (GI): inactive
[47]
  inhibition of growth at 10 µM: 3%
[48]
  growth inhibition (GI): inactive
[49]; SK-MEL-5, 48 h, read-out: GI
  inhibition of growth at 10 µM: 3%
[50]
  growth inhibition (GI): inactive
[51]
  growth inhibition (GI): inactive
[52]
  growth inhibition (GI): inactive
[53]; M14, 48 h, read-out: GI
  inhibition of growth at 10 µM: 2%
